Measured values as given in the supplement of paper PMC10307832.

How the values were obtained:
Experiment in all cases: relative viability (nuclei count vs DMSO), 5 days (fraction); higher = more cells survive
[1] = compound: CC(C)C[C@H](NC(=O)[C@H](CCc1ccccc1)NC(=O)CN1CCOCC1)C(=O)N[C@@H](Cc1ccccc1)C(=O)N[C@@H](CC(C)C)C(=O)[C@@]1(C)CO1 [Carfilzomib] + COc1cc2c(Oc3ccc(NC(=O)C4(C(=O)Nc5ccc(F)cc5)CC4)cc3F)ccnc2cc1OCCCN1CCOCC1 [Foretinib] (partner 0.25 µM)
Procedure, shortened: (§1)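 The day after seeding in 1536-well plates, lung cancer cell lines were treated by pin tool with a single drug, or with a fixed anchor-drug dose together with five library-drug doses (not always all listed) in √10 steps. After 5 days, a combined fix-and-stain solution (final 0.05% Triton X-100, 1% formaldehyde, 1 ug/ml Hoechst) was added. Nuclei counted on 4× images gave relative viability as treated counts over vehicle counts, reported as the median of duplicate plates.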

[2] = compound: CC(C)C[C@H](NC(=O)[C@H](CCc1ccccc1)NC(=O)CN1CCOCC1)C(=O)N[C@@H](Cc1ccccc1)C(=O)N[C@@H](CC(C)C)C(=O)[C@@]1(C)CO1 [Carfilzomib] + Cc1cc(Nc2cc(N3CCN(C)CC3)nc(Sc3ccc(NC(=O)C4CC4)cc3)n2)n[nH]1 [Tozasertib] (partner 0.1 µM)
Procedure, shortened: as §1

[3] = compound: CC(C)C[C@H](NC(=O)[C@H](CCc1ccccc1)NC(=O)CN1CCOCC1)C(=O)N[C@@H](Cc1ccccc1)C(=O)N[C@@H](CC(C)C)C(=O)[C@@]1(C)CO1 [Carfilzomib] + Nc1nc2[nH]cc(CCc3ccc(C(=O)N[C@@H](CCC(=O)O)C(=O)O)cc3)c2c(=O)[nH]1 [Pemetrexed] (partner 0.2 µM)
Procedure, shortened: as §1

[4] = compound: C[C@@H](Oc1cc(-c2cnn(C3CCNCC3)c2)cnc1N)c1c(Cl)ccc(F)c1Cl [Crizotinib] + CC(C)C[C@H](NC(=O)[C@H](Cc1ccccc1)NC(=O)c1cnccn1)B(O)O [Bortezomib] (partner 0.002 µM)
Procedure, shortened: as §1

| Cell Line | relative viability ([1]; first compound 0.001 µM) | relative viability ([1]; first compound 0.003162 µM) | relative viability ([1]; first compound 0.01 µM) | relative viability ([1]; first compound 0.03162 µM) | relative viability ([1]; first compound 0.1 µM) | relative viability ([2]; first compound 0.001 µM) | relative viability ([2]; first compound 0.003162 µM) | relative viability ([2]; first compound 0.01 µM) | relative viability ([2]; first compound 0.03162 µM) | relative viability ([2]; first compound 0.1 µM) | relative viability ([3]; first compound 0.001 µM) | relative viability ([3]; first compound 0.003162 µM) | relative viability ([3]; first compound 0.01 µM) | relative viability ([3]; first compound 0.03162 µM) | relative viability ([3]; first compound 0.1 µM) | relative viability ([4]; first compound 0.01 µM) | relative viability ([4]; first compound 0.03162 µM) | relative viability ([4]; first compound 0.1 µM) | relative viability ([4]; first compound 0.3162 µM) | relative viability ([4]; first compound 1 µM) |
| --- | --- | --- | --- | --- | --- | --- | --- | --- | --- | --- | --- | --- | --- | --- | --- | --- | --- | --- | --- | --- |
| NCI-H1355 | 0.995 | 1.07 | 1.03 | 0.714 | 0.198 | 0.537 | 0.647 | 0.569 | 0.371 | 0.192 | 1.01 | 1.03 | 1.08 | 1 | 0.282 | 1.23 | 1.21 | 1.22 | 1.1 | 1.24 |
| NCI-H1437 | 1.29 | 1.4 | 1.29 | 1.19 | 0.284 | 0.403 | 0.424 | 0.4 | 0.433 | 0.252 | 0.282 | 0.352 | 0.334 | 0.273 | 0.286 | 0.48 | 0.553 | 0.558 | 0.434 | 0.494 |
| NCI-H1650 | 1.22 | 0.965 | 0.954 | 0.125 | 0.321 | 0.42 | 0.392 | 0.255 | 0.139 | 0.204 | 0.343 | 0.403 | 0.312 | 0.154 | 0.166 | 0.188 | 0.173 | 0.205 | 0.159 | 0.2 |
| NCI-H1651 | 0.906 | 0.762 | 0.71 | 0.112 | 0.0981 | 0.626 | 0.805 | 0.559 | 0.126 | 0.0943 | 0.561 | 0.649 | 0.536 | 0.197 | 0.082 | 0.93 | 0.979 | 0.939 | 0.815 | 0.924 |
| NCI-H1666 | 0.988 | 0.979 | 1.07 | 0.928 | 0.45 | 0.667 | 0.551 | 0.58 | 0.523 | 0.312 | 0.896 | 0.914 | 0.898 | 0.799 | 0.562 | 0.791 | 0.981 | 0.829 | 0.796 | 0.912 |
| NCI-H1734 | 0.876 | 1.06 | 0.954 | 0.401 | 0.105 | 0.275 | 0.289 | 0.266 | 0.153 | 0.0994 | 0.398 | 0.436 | 0.432 | 0.366 | 0.19 | 1.01 | 0.926 | 0.87 |  | 1.07 |
| NCI-H1755 | 0.954 | 0.939 | 0.954 | 0.928 | 0.479 | 0.612 | 0.505 | 0.571 | 0.609 | 0.269 | 0.42 | 0.497 | 0.475 | 0.37 | 0.311 |  | 0.964 | 0.923 | 0.87 | 0.991 |
| NCI-H1915 | 1.09 | 1.09 | 1.05 | 1.04 | 0.203 | 0.422 | 0.458 | 0.465 | 0.229 | 0.0764 | 0.559 | 0.516 | 0.578 | 0.59 | 0.0792 | 0.98 | 0.921 | 1.06 |  | 0.963 |
